According to ChEMBL document CHEMBL5257050, “Structure Revisions of Phenolic Bisabolane Sesquiterpenes and a Ferroptosis Inhibitor from the Marine-Derived Fungus Aspergillus versicolor YPH93” (J Nat Prod, 2023):
The source made the active and inactive calls. No cut-off for these calls is given here.

Experiments:
[1] = Antioxidant activity assessed as DPPH radical scavenging activity at 10 uM measured for 30 mins relative to control; type: functional
CCRF-CEM [2] = test: Induction of necrosis in H2O2-induced human CCRF-CEM cells at 10 uM pretreated for 0.5 hrs followed by H2O2 stimulation by Cell-titer-glo assay; type: functional, cell-based
HT-1080 [3] = test: Cytotoxicity against human HT-1080 cells assessed as reduction in cell viability at 50 uM measured for 48 hrs by CCK-8 assay; type: functional, cell-based
CCRF-CEM [4] = test: Anti-necroptosis activity against TNFalpha-induced human CCRF-CEM cells assessed as cell viability at 10 uM pretreated for 0.5 hrs followed by TNFalpha stimulation by Cell-titer-glo assay; type: functional, cell-based
HT-1080 [5] = test: Anti-ferroptotic activity against erastin/RSL3-induced ferroptosis in human HT-1080 cells assessed as cell viability at 1 uM pretreated for 0.5 hrs followed by erastin/RSL3 stimulation by Cell-titer-glo assay; type: functional, cell-based
HT-1080 [6] = test: Anti-ferroptotic activity against RSL3-induced ferroptosis in human HT-1080 cells assessed as cell viability pretreated for 0.5 hrs followed by RSL3 stimulation by Cell-titer-glo assay; type: functional, cell-based
HT-1080 [7] = test: Anti-ferroptotic activity against erastin-induced ferroptosis in human HT-1080 cells assessed as cell viability pretreated for 0.5 hrs followed by erastin stimulation by Cell-titer-glo assay; type: functional, cell-based
CCRF-CEM [8] = test: Anti-ferroptotic activity against RSL3-induced ferroptosis in human CCRF-CEM cells assessed as cell viability at 10 uM pretreated for 0.5 hrs followed by RSL3 stimulation by Cell-titer-glo assay; type: functional, cell-based
HT-1080 [9] = test: Anti-ferroptotic activity against erastin/RSL3-induced ferroptosis in human HT-1080 cells assessed as cell viability at 10 uM pretreated for 0.5 hrs followed by erastin/RSL3 stimulation by Cell-titer-glo assay; type: functional, cell-based
HT-1080 [10] = test: Anti-ferroptotic activity against erastin-induced ferroptosis in human HT-1080 cells assessed as cell viability at 10 uM pretreated for 0.5 hrs followed by erastin stimulation by Cell-titer-glo assay; type: functional; details: read-out: Activity

EC50 (HT-1080 [6]) [nM] | EC50 (HT-1080 [7]) [µM] | Structure (SMILES) | Activity [1] | Activity (CCRF-CEM [2]) | Activity (HT-1080 [3]) | Activity (CCRF-CEM [4]) | Activity (HT-1080 [5]) | Activity (CCRF-CEM [8]) | Activity (HT-1080 [9]) | viability at 10 µM (HT-1080 [10]) [%]
– | – | Cc1cccc(O)c1-c1cc(O)c(C)c(=O)o1 | Active | inactive | inactive | inactive | – | – | – | –
– | – | CCOC(=O)c1ccc(NC2CCCCC2)c(N)c1 | Active | – | – | – | Active | – | – | –
– | – | CC(O)(CO)CCCC(C)(O)c1ccc(C(=O)O)cc1O (stereo not given) | Active | inactive | inactive | inactive | – | – | – | –
– | – | CC(CCCC(C)(O)c1ccc(C(=O)O)cc1O)C(=O)O (stereo not given) | Active | inactive | inactive | inactive | – | – | – | –
2100 | 3.4 | C/C(=C\CCC(C)(O)CO)c1ccc(C(=O)O)cc1O (stereo not given) | Active | inactive | inactive | inactive | – | Active | Active | –
– | – | CC1(C)CCC[C@](C)(c2ccc(C(=O)O)cc2O)O1 | Active | inactive | inactive | inactive | – | – | – | –
– | – | C[C@]1(CO)CCC[C@](C)(c2ccc(C(=O)O)cc2O)O1 | Active | inactive | inactive | inactive | – | – | – | –
– | – | CC1(C)O[C@@](C)(c2ccc(C(=O)O)cc2O)C[C@H](O)[C@@H]1O (relative stereo) | Active | inactive | inactive | inactive | – | – | – | –
– | – | CC(=O)OC[C@@]1(C)CCC[C@](C)(c2ccc(C(=O)O)cc2O)O1 (relative stereo) | Active | inactive | inactive | inactive | – | – | – | –
– | – | C[C@]1(c2ccc(C(=O)O)cc2O)CC[C@H](O)[C@](C)(CO)O1 (relative stereo) | Active | inactive | inactive | inactive | – | – | – | –
– | – | C[C@@]1(CO)CCC[C@](C)(c2ccc(C(=O)O)cc2O)O1 (relative stereo) | Active | inactive | inactive | inactive | – | – | – | –
– | – | CC1(C)O[C@@](C)(c2ccc(C(=O)O)cc2O)[C@H](O)C[C@@H]1O (relative stereo) | Active | inactive | inactive | inactive | – | – | – | –
– | – | CC1(c2ccc(C(=O)O)cc2O)CCC(=O)O1 (stereo not given) | Active | inactive | inactive | inactive | – | – | – | –
– | – | CC(C)(O)CCCC(C)(O)c1ccc(C(=O)O)cc1O (stereo not given) | Active | inactive | inactive | inactive | – | – | – | –
– | – | CC(=O)OC[C@@]1(C)CCC[C@@](C)(c2ccc(C(=O)O)cc2O)O1 | Active | inactive | inactive | inactive | – | – | – | 50
– | – | C/C(=C/CCC(C)(C)O)c1ccc(C(=O)O)cc1O | Active | inactive | inactive | inactive | – | – | – | –
– | – | CC1(C)O[C@@](C)(c2ccc(C(=O)O)cc2O)C[C@H](O)[C@H]1O (relative stereo) | Active | inactive | inactive | inactive | – | – | – | –
– | – | CC(=O)OCC(C)(O)CCCC(C)(O)c1ccc(C(=O)O)cc1O (stereo not given) | Active | inactive | inactive | inactive | – | – | – | –
